Measurements taken from patent publication US10420772B2, “Animal and human anti-trypanosomonal and anti-leishmania agents” (Celgene Corporation, priority 2016, dated 2019).

Tests used:
[1] = test system: IL3000 T. congolense (drug sensitive) strain; assay: In vitro Alamar Blue 72 hrs drug sensitivity assay for T. congolense; type: cell-based; conditions: Trypanosoma congolense, IL3000 T. congolense bloodstream form, read-out: T. congo Act.
Method: In Vitro Alamar Blue 72 Hrs Drug Sensitivity Assay for T. Congolense. Compounds were tested in vitro for chemotherapeutic efficacy against the IL3000 T. congolense (drug sensitive) strain using an Alamar Blue assay. Test compounds were prepared as 10 mg/mL DMSO stocks for each assay run. Compounds were assayed in at least three separate, independent test runs and an 11-point dilution curve was used to determine the IC50 values. Bloodstream form trypanosomes were supported in HMI media containing 20% bovine serum and were incubated with test compounds for 69 hrs at 34° C. in a humidified atmosphere containing 5% CO2. Thereafter, 10 μL of Resazurin dye (12.5 mg in 100 mL of phosphate buffered saline, Sigma-Aldrich, Buchs, Switzerland) were added for an additional 3 hrs. Plates were then read using a fluorescent plate reader (Spectramax, Gemini XS, Bucher Biotec, Basel, Switzerland) using an excitation wavelength of 536 nm and an emission wavelength of 588 nm. Data points were averaged to generate sigmoidal dose-response curves and IC50 values were determined using Softmax Pro 5.2 software.

[2] = test system: STIB 719/ILRAD 560 T. vivax (drug sensitive) strain; assay: Ex vivo Alamar Blue 48 hrs drug sensitivity assay for T. vivax; type: cell-based; conditions: Trypanosoma vivax, STIB719; STIB 719/ILRAD 560 T. vivax bloodstream form, ex vivo, Alamar Blue, 48 hrs; read-out: T. vivax Act.
Method: Ex vivo Alamar Blue48 hrs drug sensitivity assay for T. vivax. Compounds were tested ex vivo for chemotherapeutic efficacy against the STIB 719/ILRAD 560 T. vivax (drug sensitive) strain, using an Alamar Blue assay. Test compounds were prepared as 10 mg/mL DMSO stocks for each assay run. Compounds were assayed in at least three separate, independent test runs and an 11-point dilution curve was used to determine the IC50 values. Bloodstream form trypanosomes were propagated and harvested from a highly parasitaemic mouse (via cardiac puncture) and were incubated with test compounds for 45 hrs at 37° C. in a humidified atmosphere containing 5% CO2, supported in HMI media containing 20% bovine serum. Thereafter, 10 μL of Resazurin dye (12.5 mg in 100 mL of phosphate buffered saline, Sigma-Aldrich, Buchs, Switzerland) were added for an additional 3 hrs. Plates were then read using a fluorescent plate reader (Spectramax, Gemini XS, Bucher Biotec, Basel, Switzerland) using an excitation wavelength of 536 nm and an emission wavelength of 588 nm. Data points were averaged to generate sigmoidal dose-response curves and IC50 values were determined using Softmax Pro 5.2 software.

SMILES | IC50 [1] | IC50 [2]
CC1(Nc2ncc3nc(Nc4cccc(Cl)c4)n([C@H]4CC[C@@H](CN)CC4)c3n2)CCC1 [A-2, 9-((1s,4s)-4-(aminomethyl)cyclohexyl)-N8-(3-chlorophenyl)-N2-(1-methylcyclobutyl)-9H-purine-2,8-diamine] | < 150 nM | < 150 nM
CCC(C)(C)Nc1ncc2nc(Nc3cccc(Cl)c3)n([C@H]3CC[C@@H](CN)CC3)c2n1 [A-3, 9-((1s,4s)-4-(aminomethyl)cyclohexyl)-N8-(3-chlorophenyl)-N2-tert-pentyl-9H-purine-2,8-diamine] | < 150 nM | < 150 nM
CC(C)(C)Nc1ncc2nc(Nc3ccccn3)n(C3CCC(CN)CC3)c2n1 (stereo not shown) [A-6, 9-((1s,4s)-4-(aminomethyl)cyclohexyl)-N2-tert-butyl-N8-(pyridin-2-yl)-9H-purine-2,8-diamine] | 350 to 500 nM | < 150 nM
CC1(Nc2ncc3nc(Nc4ccccn4)n(C4CCC(CN)CC4)c3n2)CCOCC1 (stereo not shown) [A-8, 9-((1s,4s)-4-(aminomethyl)cyclohexyl)-N2-(4-methyltetrahydro-2H-pyran-4-yl)-N8-(pyridin-2-yl)-9H-purine-2,8-diamine] | 350 to 500 nM | 150 to 350 nM
CC1(Nc2ncc3nc(Nc4cccc(F)c4F)n(C4CCC(CN)CC4)c3n2)CCOCC1 (stereo not shown) [A-9, 9-((1s,4s)-4-(aminomethyl)cyclohexyl)-N8-(2,3-difluorophenyl)-N2-(4-methyltetrahydro-2H-pyran-4-yl)-9H-purine-2,8-diamine] | < 150 nM | < 150 nM
CC1(Nc2ncc3nc(Nc4cccc(Cl)c4)n(C4CCC(O)CC4)c3n2)CCCC1 (stereo not shown) [A-10, (1s,4s)-4-(8-(3-chlorophenylamino)-2-(1-methylcyclopentylamino)-9H-purin-9-yl)cyclohexanol] | 350 to 500 nM | 350 to 500 nM
CC1(Nc2ncc3nc(Nc4cccc(C(F)(F)F)c4)n(C4CCC(CN)CC4)c3n2)CCCC1 (stereo not shown) [A-12, 9-((1s,4s)-4-(aminomethyl)cyclohexyl)-N2-(1-methylcyclopentyl)-N8-(3-(trifluoromethyl)phenyl)-9H-purine-2,8-diamine] | 350 to 500 nM | 150 to 350 nM
COC(=O)NC[C@H]1CC[C@@H](n2c(Nc3cccc(Cl)c3)nc3cnc(NC4(C)CCOCC4)nc32)CC1 [A-14, methyl ((1s,4s)-4-(8-(3-chlorophenylamino)-2-(4-methyltetrahydro-2H-pyran-4-ylamino)-9H-purin-9-yl)cyclohexyl)methylcarbamate] | 150 to 350 nM | 350 to 500 nM
CC(C)(C)Nc1ncc2nc(Nc3cccc(C(F)(F)F)c3)n([C@H]3CC[C@@H](CN)CC3)c2n1 [A-15, 9-((1s,4s)-4-(aminomethyl)cyclohexyl)-N2-tert-butyl-N8-(3-(trifluoromethyl)phenyl)-9H-purine-2,8-diamine] | < 150 nM | < 150 nM
CC1(Nc2ncc3nc(Nc4ccc(C(F)(F)F)cc4)n(C4CCC(CN)CC4)c3n2)CCCC1 (stereo not shown) [A-16, 9-((1s,4s)-4-(aminomethyl)cyclohexyl)-N2-(1-methylcyclopentyl)-N8-(4-(trifluoromethyl)phenyl)-9H-purine-2,8-diamine] | 350 to 500 nM | 350 to 500 nM
CC(C)(C)Nc1ncc2nc(Nc3cccc(C(F)(F)F)c3)n([C@H]3CC[C@H](CN)CC3)c2n1 [A-17, 9-((1r,4r)-4-(aminomethyl)cyclohexyl)-N2-tert-butyl-N8-(3-(trifluoromethyl)phenyl)-9H-purine-2,8-diamine] | < 150 nM | < 150 nM
Cc1ccc(Nc2nc3cnc(NC(C)(C)C)nc3n2C2CCC(CN)CC2)cc1 (stereo not shown) [A-18, 9-((1r,4r)-4-(aminomethyl)cyclohexyl)-N2-tert-butyl-N8-p-tolyl-9H-purine-2,8-diamine] | 350 to 500 nM | 150 to 350 nM
CC1(Nc2ncc3nc(Nc4cccc(Cl)c4)n([C@H]4CC[C@@H](CO)CC4)c3n2)CCOCC1 [A-19, ((1s,4s)-4-(8-(3-chlorophenylamino)-2-(4-methyltetrahydro-2H-pyran-4-ylamino)-9H-purin-9-yl)cyclohexyl)methanol] | 350 to 500 nM | 150 to 350 nM
CC1(Nc2ncc3nc(Nc4cccc(Cl)c4)n([C@@H]4CCC[C@H](CN)C4)c3n2)CCOCC1 [A-20, 9-((1R,3S)-3-(aminomethyl)cyclohexyl)-N8-(3-chlorophenyl)-N2-(4-methyltetrahydro-2H-pyran-4-yl)-9H-purine-2,8-diamine] | 350 to 500 nM | < 150 nM
CNC[C@H]1CC[C@@H](n2c(Nc3cccc(Cl)c3)nc3cnc(NC4(C)CCOCC4)nc32)CC1 [A-21, N8-(3-chlorophenyl)-9-((1s,4s)-4-((methylamino)methyl)cyclohexyl)-N2-(4-methyltetrahydro-2H-pyran-4-yl)-9H-purine-2,8-diamine] | < 150 nM | < 150 nM
CC(C)(C)Nc1ncc2nc(Nc3ccc(C(F)(F)F)cc3)n([C@H]3CC[C@@H](CN)CC3)c2n1 [A-22, 9-((1s,4s)-4-(aminomethyl)cyclohexyl)-N2-tert-butyl-N8-(4-(trifluoromethyl)phenyl)-9H-purine-2,8-diamine] | 150 to 350 nM | 350 to 500 nM
CCC(C)(C)Nc1ncc2nc(Nc3ccc(C(F)(F)F)cc3)n([C@H]3CC[C@@H](CN)CC3)c2n1 [A-23, 9-((1s,4s)-4-(aminomethyl)cyclohexyl)-N2-tert-pentyl-N8-(4-(trifluoromethyl)phenyl)-9H-purine-2,8-diamine] | 350 to 500 nM | 350 to 500 nM
CC1(Nc2ncc3nc(Nc4cccc(C(F)(F)F)c4)n(C4CCC(C#N)CC4)c3n2)CCOCC1 (stereo not shown) [A-24, (1s,4s)-4-(2-(4-methyltetrahydro-2H-pyran-4-ylamino)-8-(3-(trifluoromethyl)phenylamino)-9H-purin-9-yl)cyclohexanecarbonitrile] | 150 to 350 nM | 150 to 350 nM
CC(=O)NC1CCC(n2c(Nc3cccc(Cl)c3)nc3cnc(NC4(C)CCOCC4)nc32)CC1 (stereo not shown) [A-25, N-((1s,4s)-4-(8-(3-chlorophenylamino)-2-(4-methyltetrahydro-2H-pyran-4-ylamino)-9H-purin-9-yl)cyclohexyl)acetamide] | 350 to 500 nM | < 150 nM
CC1(Nc2ncc3nc(Nc4cccc(Cl)c4)n([C@H]4CC[C@H](CO)CC4)c3n2)CCOCC1 [A-26, ((1r,4r)-4-(8-(3-chlorophenylamino)-2-(4-methyltetrahydro-2H-pyran-4-ylamino)-9H-purin-9-yl)cyclohexyl)methanol] | 150 to 350 nM | < 150 nM
CC1(Nc2ncc3nc(Nc4cccc(Cl)c4)n([C@H]4CC[C@@H](N)CC4)c3n2)CCOCC1 [A-27, 9-((1s,4s)-4-aminocyclohexyl)-N8-(3-chlorophenyl)-N2-(4-methyltetrahydro-2H-pyran-4-yl)-9H-purine-2,8-diamine] | < 150 nM | < 150 nM
CC(C)(C)Nc1ncc2nc(Nc3cccc(C(F)(F)F)c3)n([C@H]3CC[C@@H](N)CC3)c2n1 [A-29, 9-((1s,4s)-4-aminocyclohexyl)-N2-tert-butyl-N8-(3-(trifluoromethyl)phenyl)-9H-purine-2,8-diamine] | < 150 nM | < 150 nM
CC(C)(C)Nc1ncc2nc(Nc3cccc(C(F)(F)F)c3)n([C@H]3CC[C@H](N)CC3)c2n1 [A-30, 9-((1r,4r)-4-aminocyclohexyl)-N2-tert-butyl-N8-(3-(trifluoromethyl)phenyl)-9H-purine-2,8-diamine] | < 150 nM | < 150 nM
CC1(Nc2ncc3nc(Nc4ccc(C(F)(F)F)cc4)n([C@H]4CC[C@@H](CN)CC4)c3n2)CCOCC1 [A-31, 9-((1s,4s)-4-(aminomethyl)cyclohexyl)-N2-(4-methyltetrahydro-2H-pyran-4-yl)-N8-(4-(trifluoromethyl)phenyl)-9H-purine-2,8-diamine] | 150 to 350 nM | < 150 nM
CC1(Nc2ncc3nc(Nc4cccc(Cl)c4)n(-c4ccc(CN)cc4)c3n2)CCOCC1 [A-32, 9-(4-(aminomethyl)phenyl)-N8-(3-chlorophenyl)-N2-(4-methyltetrahydro-2H-pyran-4-yl)-9H-purine-2,8-diamine] | 150 to 350 nM | < 150 nM
CC1(Nc2ncc3nc(Nc4cccc(C(F)(F)F)c4)n(C4CCC(CN)CC4)c3n2)CCC1 (stereo not shown) [A-57, 9-((1s,4s)-4-(aminomethyl)cyclohexyl)-N2-(1-methylcyclobutyl)-N8-(3-(trifluoromethyl)phenyl)-9H-purine-2,8-diamine] | < 150 nM | –
NCC1CCC(n2c(Nc3cccc(Cl)c3F)nc3cnc(NC4CCOCC4)nc32)CC1 (stereo not shown) [B-13, 9-((1s,4s)-4-(aminomethyl)cyclohexyl)-N8-(3-chloro-2-fluorophenyl)-N2-(tetrahydro-2H-pyran-4-yl)-9H-purine-2,8-diamine] | < 150 nM | –
